Laboratory results: paper doi:10.1101/2025.06.30.662286v4 (biorxiv, 2026)
Like-named read-outs stand apart in the source and are kept apart here. Values belong to the compound of their own block, whether it stands above or below them.

Key:
sc-apCC-4-SN38-1 [1] = test: fluorescence saturation binding; set-up: species or system synthetic construct; conditions: ABS pH 4, 10% v/v DMSO, 1 μM SN38, 0-480 μM protein
[2] = target: sc-apCC-4-DPH (highest-affinity DPH binder of Fig. 2; sc-apCC-4-DPH-1 or sc-apCC-4-DPH-2); test: fluorescence intensity saturation binding; set-up: species or system synthetic construct; conditions: PBS pH 7.4, 10% v/v MeCN, 0.5 μM DPH, 0-60 μM protein
[3] = target: sc-apCC-6-DPH-NR (P, promiscuous binder); test: fluorescence saturation binding; set-up: species or system synthetic construct; conditions: PBS pH 7.4, 10% v/v MeCN, 0.5 μM ligand, 0-60 μM protein
[4] = target: sc-apCC-6-NR (S, specific binder); test: fluorescence saturation binding; set-up: species or system synthetic construct; conditions: PBS pH 7.4, 10% v/v MeCN, 0.5 μM ligand, 0-60 μM protein
sc-apCC-4-NR-1 = test: fluorescence intensity saturation binding; set-up: species or system synthetic construct; conditions: PBS pH 7.4, 10% v/v MeCN, 0.5 μM Nile red, 0-60 μM protein
sc-apCC-4-SN38-1 [5] = test: fluorescence saturation binding; set-up: species or system synthetic construct
sc-apCC-4-LMF-1 = conditions: PBS pH 7.4, 10% v/v DMSO, 1 μM lumiflavin, 0-480 μM protein

SMILES: C(=CC=Cc1ccccc1)C=Cc1ccccc1 [DPH, 1,6-diphenyl-1,3,5-hexatriene]
Kd [2]: 1200 ± 100 nM
Kd [3]: 1900 ± 200 nM
Kd [4]: > 20000 nM

SMILES: Cc1cc2nc3c(=O)[nH]c(=O)nc-3n(C)c2cc1C [lumiflavin]
Kd (sc-apCC-4-LMF-1): > 50000 nM

SMILES: CCN(CC)c1ccc2nc3c4ccccc4c(=N)cc-3oc2c1 [Nile blue]
Kd (sc-apCC-4-SN38-1 [5]; read-out: KD,Nile blue): ~400 nM

Other lines, results leading:

Kd (sc-apCC-4-SN38-1 [1]): 7800 ± 600 nM
SMILES: CCc1c2c(nc3ccc(O)cc13)-c1cc3c(c(=O)n1C2)COC(=O)[C@]3(O)CC [SN38]

Kd (sc-apCC-4-NR-1): 2400 ± 100 nM
Kd [3]: 2200 ± 200 nM
Kd (sc-apCC-4-SN38-1 [5]; read-out: KD,Nile Red): ~200 nM
Kd [4]: 110 ± 40 nM
SMILES: CCN(CC)c1ccc2nc3c4ccccc4c(=O)cc-3oc2c1 [Nile red]
